Assay results taken from patent publication US20230391739A1, “ARYL DERIVATIVES FOR TREATING TRPM3 MEDIATED DISORDERS” (Katholieke Universiteit Leuven, priority 2020, published 2023).

Biological target: T1, mouse TRPM3α2 (mTRPM3) ion channel (Mus musculus, UniProt J9SQF3)
T1 construct: expressed in transfected cells; host or cells: flip-in HEK293
Experiment: TRPM3 ion channel driven Ca2+ uptake, Fluo-4 AM assay, PS-stimulated (mTRPM3)
Type: cell-based
Settings: TRPM3 overexpressing flip-in HEK293 cells stimulated with Pregnenolone sulfate (PS) 50 μM, activity ranges A, B, C
Method: Monitoring the TRPM3 Ion Channel Driven Ca^2+ Uptake.
In order to monitor the inhibition of the mouse TRPM3α2 (mTRPM3) ion channel by the compounds of the invention, a cellular system making use of an mTRPM3alpha2 or hTRPM3 overexpressing cell line (flip-in HEK293) was used. The TRPM3 channel was stimulated/opened with Pregnenolone sulfate (PS) (50 μM) which results in Ca^2+ influx.
For mTRPM3, the intracellular Ca^2+ was measured with a Calcium responsive dye, Fluor-4 AM ester (Invitrogen). Cells were cultured until a confluence of 80-90%, washed with Versene (Invitrogen) and detached from the surface by a short incubation with 0.05% Trypsin (Invitrogen). The trypsination process was stopped by the addition of complete cell culture medium (DMEM, glutamax, 10% FCS, NEAA, Pen-Strep). Cells were collected and resuspended in Krebs buffer without Calcium at RT.
Prior the cell seeding (±2000 cells/well into a black, 384 well plate (Greiner)) the diluted compound was added in the assay plate, together with the PS dissolved in Krebs buffer containing Calcium. […] Directly after cell addition the plates were read on an Envision fluorescence reader (Perkin Elmer) by an Excitation of 485 nm and emission at 535 nm.
Channel inhibition was calculated compared to a non-PS stimulated control versus a condition stimulated with PS (50 μM) with vehicle. The ability of the compounds of the invention to inhibit this activity was determined as: Percentage inhibition=[1−((RFU determined for sample with test compound present−RFU determined for sample with positive control inhibitor) divided by (RFU determined in the presence of vehicle−RFU determined for sample with positive control inhibitor))]*100.
The activities of the Example compounds tested are depicted in the table below.

T1 sequence (J9SQF3 1-1709 isoform J9SQF3-12): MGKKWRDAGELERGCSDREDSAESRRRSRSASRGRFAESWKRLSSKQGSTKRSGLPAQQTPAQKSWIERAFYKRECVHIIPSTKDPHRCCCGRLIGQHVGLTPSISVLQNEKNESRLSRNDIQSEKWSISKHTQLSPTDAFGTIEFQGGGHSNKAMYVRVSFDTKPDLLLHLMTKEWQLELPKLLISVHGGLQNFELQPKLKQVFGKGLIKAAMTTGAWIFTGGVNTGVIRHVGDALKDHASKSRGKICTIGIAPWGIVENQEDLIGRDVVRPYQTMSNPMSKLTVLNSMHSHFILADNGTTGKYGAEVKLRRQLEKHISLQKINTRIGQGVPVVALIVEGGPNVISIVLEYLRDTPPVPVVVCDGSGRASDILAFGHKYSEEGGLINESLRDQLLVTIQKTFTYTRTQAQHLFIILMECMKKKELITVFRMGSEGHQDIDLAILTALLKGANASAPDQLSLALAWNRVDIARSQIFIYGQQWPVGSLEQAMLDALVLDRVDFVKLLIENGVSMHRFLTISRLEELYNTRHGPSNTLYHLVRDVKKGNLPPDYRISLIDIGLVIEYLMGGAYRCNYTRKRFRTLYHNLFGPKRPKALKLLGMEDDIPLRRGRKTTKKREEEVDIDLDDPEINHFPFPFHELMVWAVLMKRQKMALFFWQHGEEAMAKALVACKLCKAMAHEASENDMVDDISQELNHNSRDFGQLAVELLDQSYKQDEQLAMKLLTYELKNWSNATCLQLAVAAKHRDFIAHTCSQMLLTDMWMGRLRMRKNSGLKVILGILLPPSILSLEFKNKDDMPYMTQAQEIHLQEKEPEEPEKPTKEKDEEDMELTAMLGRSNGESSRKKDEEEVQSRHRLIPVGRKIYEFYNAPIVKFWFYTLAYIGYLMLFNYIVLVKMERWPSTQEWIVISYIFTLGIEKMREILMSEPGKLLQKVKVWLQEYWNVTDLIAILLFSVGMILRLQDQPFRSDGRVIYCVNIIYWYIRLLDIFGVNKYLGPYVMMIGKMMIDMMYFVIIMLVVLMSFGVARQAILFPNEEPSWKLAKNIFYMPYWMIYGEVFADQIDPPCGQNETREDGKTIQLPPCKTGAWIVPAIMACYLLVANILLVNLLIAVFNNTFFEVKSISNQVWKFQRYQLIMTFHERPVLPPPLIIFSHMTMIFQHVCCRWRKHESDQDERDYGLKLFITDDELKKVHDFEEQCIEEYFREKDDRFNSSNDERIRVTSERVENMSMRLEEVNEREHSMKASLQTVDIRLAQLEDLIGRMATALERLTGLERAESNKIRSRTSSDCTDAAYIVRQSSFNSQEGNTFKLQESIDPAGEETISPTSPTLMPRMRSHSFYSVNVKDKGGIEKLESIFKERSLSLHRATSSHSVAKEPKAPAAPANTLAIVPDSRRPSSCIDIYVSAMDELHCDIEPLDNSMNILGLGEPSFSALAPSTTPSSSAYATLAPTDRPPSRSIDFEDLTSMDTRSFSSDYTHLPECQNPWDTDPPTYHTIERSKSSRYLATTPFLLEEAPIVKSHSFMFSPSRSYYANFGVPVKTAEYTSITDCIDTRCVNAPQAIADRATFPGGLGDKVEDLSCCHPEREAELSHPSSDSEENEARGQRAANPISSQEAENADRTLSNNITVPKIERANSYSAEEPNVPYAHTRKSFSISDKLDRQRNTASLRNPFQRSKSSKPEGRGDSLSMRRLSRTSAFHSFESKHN

IC50 [nM]	SMILES
1000 to 20000	Cc1oc2ccc(COc3ccccc3F)cc2c1C(=O)NC(CO)C(N)=O (single isomer, unassigned) [Cpd 321-En 1, N-(1-amino-3-hydroxy-1-oxopropan-2-yl)-5-((2-fluorophenoxy)methyl)-2-methylbenzofuran-3-carboxamide]
< 1000	Cc1oc2ccc(OCc3ccccc3)cc2c1C(=O)NC1CCS(=O)(=O)CC1 [Cpd 198, 5-(benzyloxy)-N-(1,1-dioxidotetrahydro-2H-thiopyran-4-yl)-2-methylbenzofuran-3-carboxamide]
< 1000	Cc1oc2ccc(OCc3ccccc3)c(C)c2c1C(=O)NC1CNCC1(F)F (single isomer, unassigned) [Cpd 299-En 1, 5-(benzyloxy)-N-(4,4-difluoropyrrolidin-3-yl)-2,4-dimethylbenzofuran-3-carboxamide]
< 1000	Cc1oc2ccc(OC(C)c3ccccc3)cc2c1C(=O)NC1(CO)CCOCC1 (single isomer, unassigned) [Cpd 308-En 1, N-(4-(hydroxymethyl)tetrahydro-2H-pyran-4-yl)-2-methyl-5-(1-phenylethoxy)benzofuran-3-carboxamide]
< 1000	Cc1oc2ccc(OCc3ccccc3Cl)cc2c1C(=O)N[C@@H](CO)C(N)=O [Cpd 338, (S)—N-(1-Amino-3-hydroxy-1-oxopropan-2-yl)-5-((2-chlorobenzyl)oxy)-2-methylbenzofuran-3-carboxamide]
1000 to 20000	Cc1oc2ccc(OCc3ccccc3)cc2c1C(=O)NCc1ccccn1 [Cpd 099, 5-(benzyloxy)-2-methyl-N-(pyridin-2-ylmethyl)benzofuran-3-carboxamide]
1000 to 20000	Cc1oc2ccc(OC3CCc4ccccc43)cc2c1C(=O)O (stereo not shown) [Cpd 011, 5-((2,3-dihydro-1H-inden-1-yl)oxy)-2-methylbenzofuran-3-carboxylic acid]
< 1000	Cc1oc2ccc(OCc3ccccc3)cc2c1C(=O)N[C@H]1CC[C@@H](O)CC1 [Cpd 125, 5-(benzyloxy)-N-(cis-4-hydroxycyclohexyl)-2-methylbenzofuran-3-carboxamide]
< 1000	Cc1ccccc1COc1ccc2oc(C)c(C(=O)N[C@H]3CCNC3)c2c1 [Cpd 083, (S)-2-methyl-5-((2-methylbenzyl)oxy)-N-(pyrrolidin-3-yl)benzofuran-3-carboxamide]
< 1000	Cc1oc2c(F)cc(OCc3ccccc3)cc2c1C(=O)NC1CNCC1(F)F (single isomer, unassigned) [Cpd 306-En 1]
1000 to 20000	Cc1oc2ccc(OCc3ccccc3)c(C#N)c2c1C(=O)NC1CNCC1(F)F (single isomer, unassigned) [Cpd 297-En 2, 5-(benzyloxy)-4-cyano-N-(4,4-difluoropyrrolidin-3-yl)-2-methylbenzofuran-3-carboxamide]
1000 to 20000	Cc1oc2ccc(OCc3ccccc3)cc2c1C(=O)NCCc1ccccn1 [Cpd 138, 5-(benzyloxy)-2-methyl-N-(2-(pyridin-2-yl)ethyl)benzofuran-3-carboxamide]
1000 to 20000	Cc1nc(C)n(CCNC(=O)c2c(C)oc3ccc(OCc4ccccc4)cc23)n1 [Cpd 179, 5-(benzyloxy)-N-(2-(3,5-dimethyl-1H-1,2,4-triazol-1-yl)ethyl)-2-methylbenzofuran-3-carboxamide]
1000 to 20000	Cc1oc2ccc(OCc3ccccc3COC3CCCCO3)cc2c1C(=O)NC1CCN(C)CC1 (stereo not shown) [Cpd 260, 2-methyl-N-(1-methylpiperidin-4-yl)-5-((2-(((tetrahydro-2H-pyran-2-yl)oxy)methyl)benzyl)oxy)benzofuran-3-carboxamide]
> 20000	CCN1CCCN(C(=O)c2c(C)oc3ccc(OCc4ccccc4)cc23)CC1 [Cpd 149, (5-(benzyloxy)-2-methylbenzofuran-3-yl)(4-ethyl-1,4-diazepan-1-yl)methanone]
< 1000	Cc1oc2ccc(COc3ccccc3F)cc2c1C(=O)NC(CO)C(N)=O (single isomer, unassigned) [Cpd 321-En 2, N-(1-amino-3-hydroxy-1-oxopropan-2-yl)-5-((2-fluorophenoxy)methyl)-2-methylbenzofuran-3-carboxamide]
< 1000	Cc1oc2ccc(OCc3ccccc3)cc2c1C(=O)NCC(O)CO (stereo not shown) [Cpd 057, 5-(benzyloxy)-N-(2,3-dihydroxypropyl)-2-methylbenzofuran-3-carboxamide]
< 1000	Cc1oc2ccc(OCc3ccccc3F)cc2c1C(=O)NC1(CO)CCC1 [Cpd 324, 5-((2-fluorobenzyl)oxy)-N-(1-(hydroxymethyl)cyclobutyl)-2-methylbenzofuran-3-carboxamide]
> 20000	Cc1oc2ccc(OCc3cccc(F)c3)cc2c1C(N)=O [Cpd 037, 5-((3-fluorobenzyl)oxy)-2-methylbenzofuran-3-carboxamide]

IC50 [nM]	SMILES
1000 to 20000	Cc1oc2ccc(OCc3ccccc3)cc2c1C(=O)NCC(O)c1cccnc1 (stereo not shown) [Cpd 174, 5-(benzyloxy)-N-(2-hydroxy-2-(pyridin-3-yl)ethyl)-2-methylbenzofuran-3-carboxamide]
1000 to 20000	Cc1oc2ccc(OCc3ccccc3Cl)cc2c1C(=O)O [Cpd 018, 5-((2-chlorobenzyl)oxy)-2-methylbenzofuran-3-carboxylic acid]
< 1000	Cc1oc2ccc(OCc3ccccc3)cc2c1C(=O)NC1CC(CO)(CO)C1 [Cpd 166, 5-(benzyloxy)-N-(3,3-bis(hydroxymethyl)cyclobutyl)-2-methylbenzofuran-3-carboxamide]
< 1000	Cc1oc2ccc(OCc3ccccc3)cc2c1C(=O)N[C@H]1C[C@@H](O)C1 [Cpd 054, 5-(benzyloxy)-N-(cis-3-hydroxycyclobutyl)-2-methylbenzofuran-3-carboxamide]
< 1000	Cc1oc2ccc(OC(C)c3ccccc3)cc2c1C(=O)N[C@@H](CO)C(N)=O (single isomer, unassigned) [Cpd 336-Dia 1]
< 1000	Cc1oc2ccc(OCc3ccccc3)cc2c1C(=O)N[C@H]1CC[C@H](O)CC1 [Cpd 124, 5-(benzyloxy)-N-(trans-4-hydroxycyclohexyl)-2-methylbenzofuran-3-carboxamide]
< 1000	Cc1oc2ccc(OCc3ccccc3)cc2c1C(=O)NC1CCNCC1(F)F (stereo not shown) [Cpd 173, 5-(benzyloxy)-N-(3,3-difluoropiperidin-4-yl)-2-methylbenzofuran-3-carboxamide]
< 1000	Cc1oc2ccc(OCc3ccccc3)c(C#N)c2c1C(=O)NC1CNCC1(F)F (single isomer, unassigned) [Cpd 297-En 1, 5-(benzyloxy)-4-cyano-N-(4,4-difluoropyrrolidin-3-yl)-2-methylbenzofuran-3-carboxamide]
< 1000	Cc1oc2ccc(OCc3ccccc3)cc2c1C(=O)N[C@H]1CCN(S(C)(=O)=O)C1 [Cpd 215, (S)-5-(benzyloxy)-2-methyl-N-(1-(methylsulfonyl)pyrrolidin-3-yl)benzofuran-3-carboxamide]
< 1000	Cc1oc2ccc(OCc3ccccc3)cc2c1C(=O)NCC1CCC(=O)N1 (stereo not shown) [Cpd 112, 5-(benzyloxy)-2-methyl-N-((5-oxopyrrolidin-2-yl)methyl)benzofuran-3-carboxamide]
1000 to 20000	Cc1oc2ccc(OCc3ccccc3)cc2c1C(=O)N[C@@H]1CN[C@@H](C(=O)O)C1 [Cpd 163, (2R,4S)-4-(5-(benzyloxy)-2-methylbenzofuran-3-carboxamido)pyrrolidine-2-carboxylic acid]
> 20000	Cc1oc2cc(C#N)c(OCc3ccccc3)cc2c1C(=O)NC1CNCC1(F)F (single isomer, unassigned) [Cpd 301-En 1, 5-(benzyloxy)-6-cyano-N-(4,4-difluoropyrrolidin-3-yl)-2-methylbenzofuran-3-carboxamide]
< 1000	Cc1oc2ccc(OCc3ccccc3)cc2c1C(=O)N[C@@H](CO)C(N)=O [Cpd 337, (S)—N-(1-amino-3-hydroxy-1-oxopropan-2-yl)-5-(benzyloxy)-2-methylbenzofuran-3-carboxamide]
1000 to 20000	Cc1oc2ccc(OCc3ccccc3S(C)(=O)=O)cc2c1C(=O)NC1CCNCC1(F)F (single isomer, unassigned) [Cpd 333-En 1, N-(3,3-difluoropiperidin-4-yl)-2-methyl-5-((2-(methylsulfonyl)benzyl)oxy)benzofuran-3-carboxamide]
> 20000	Cc1oc2ccc(OCc3ccccc3)cc2c1C(=O)N1CCCC(C(=O)NCC(C)C)C1 (stereo not shown) [Cpd 236, 1-(5-(benzyloxy)-2-methylbenzofuran-3-carbonyl)-N-isobutylpiperidine-3-carboxamide]
< 1000	Cc1oc2ccc(OCc3ccccc3F)cc2c1C(=O)NC1(C(N)=O)COC1 [Cpd 309, N-(3-carbamoyloxetan-3-yl)-5-((2-fluorobenzyl)oxy)-2-methylbenzofuran-3-carboxamide]
1000 to 20000	COc1ccc(COc2ccc3oc(C)c(C(=O)O)c3c2)cc1 [Cpd 014, 5-((4-methoxybenzyl)oxy)-2-methylbenzofuran-3-carboxylic acid]
< 1000	CCN1CCC[C@@H]1CNC(=O)c1c(C)oc2ccc(OCc3ccccc3)cc12 [Cpd 153, (R)-5-(benzyloxy)-N-((l-ethylpyrrolidin-2-yl)methyl)-2-methylbenzofuran-3-carboxamide]
